Drawing on patent publication US10143638B2, “Method of treating skin with ingenol mebutate” (LEO Laboratories Limited, priority 2009, dated 2018), this text covers hyaluronan synthesis and HAS1 expression for 1 molecule.

Structures are written as SMILES.

One test deals with dermal fibroblasts. Kind of test: Hyaluronan synthesis by dermal fibroblasts (Hyaluronic Acid Quantitative Test Kit). The class given is cell-based, human. An excerpt: (§1) A normal adult skin biopsy (6 mm) was obtained (n=1), with informed consent, from an individual attending the Oral Surgery Clinic, School of Dentistry, Wales College of Medicine, Cardiff. Following the application of a local anaesthetic, the dermal biopsy was collected and adult dermal fibroblast cultures established by single cell suspension technique, following enzymic degradation of the specimen. This technique has previously been reliably used to establish viable primary cultures of both oral and dermal fibroblasts in vitro (Cook et al, 2000; Stephens et al, 2001; 2003). Dermal fibroblasts were cultured in Fibroblast-Serum Containing Medium, containing Dulbecco's Modified Eagle's Medium (DMEM), supplemented with L-glutamine (2 mM), antibiotics (100 U/ml) penicillin G sodium, […] streptomycin sulphate and 0.25 μg/ml amphotericin B) and 10% foetal calf serum (all purchased from Invitrogen Ltd., Paisley, U.K.). Dermal fibroblast cultures were maintained at 37° C., in a 5% CO2/95% air atmosphere, with the culture medium being changed every 2-3 days. Dermal fibroblasts were used between) passage 7-17, for all experiments.
Following trypsinization, dermal fibroblasts were seeded in 24-well tissue culture plates in PEP005-free, Fibroblast-Serum Containing Medium (1 ml), at a cell density of 2.5×10^4 cell/well. Dermal fibroblasts were maintained at 37° C., in a 5% CO2/95% air atmosphere, for 48 h, prior to maintenance in serum-free, Fibroblast-Serum Containing Medium (1 ml), for a further 48 h. At this stage, the serum-free, culture medium was replaced with Fibroblast-Serum Containing Medium (600 μl), containing 0 μg/ml, 0.01 μg/ml, 0.1 μg/ml, 1 μg/ml, 10 μg/ml or 100 μg/ml PEP005, +/−TGF-β1 (10 ng/ml) (three culture wells per PEP005 concentration). A control was also established, consisting of cells in serum-free, Fibroblast-Serum Containing Medium, containing 1% DMSO. The dermal fibroblasts were maintained at 37° C., in a 5% CO2/95% air atmosphere, for 24 h or 72 h, prior to culture medium removal. Hyaluronan synthesis in the collected culture media was quantified, using a Hyaluronic Acid Quantitative Test Kit (Corgenix U.K. Ltd., Cambridgeshire, U.K.), which utilizes a naturally occurring bovine binding protein to hyaluronan. Supernatants were assayed, as per manufacturer's instructions, and optical density measured using a spectrophotometer at 450 nm. Hyaluronan concentrations were determined by comparing the absorbance of the sample against a reference curve prepared from the reagent blank and standards. Each experiment was performed on three separate occasions.

The subject of another test is HAS1. Kind of test: HAS1 gene expression by dermal fibroblasts (qPCR). Format: cell-based, human.
Source text: as §1
Following trypsinization, dermal fibroblasts were seeded in 24-well tissue culture plates, in PEP005-free, Fibroblast-Serum Containing Medium (1 ml), at a cell density of 2.5×10^4 cell/well. Dermal fibroblasts were maintained at 37° C., in a 5% CO2/95% air atmosphere, overnight. At this stage, the culture medium was replaced with Fibroblast-Serum Containing Medium (600 μl), containing 0 μg/ml, 0.01 μg/ml, 0.1 μg/ml, 1 μg/ml, 10 μg/ml or 100 μg/ml PEP005, +/−TGF-β1 (10 ng/ml) (three culture wells per PEP005 concentration). A control was also established, consisting of cells in Fibroblast-Serum Containing Medium, containing 1% DMSO. The dermal fibroblasts were maintained at 37° C., in a 5% CO2/95% air atmosphere, for 24 h or 72 h, prior to washing in PBS (3×1 ml) and Trizol® Reagent (250 μl) added to the cells, for 5 min at room temperature, to induce cell lysis. RNA was extracted by the phenol-chloroform method, as described above, while a cDNA library was generated via random hexamer RT, as described above. RNA (1 μg) was added to 100 µM random hexamer (1 μl), 5×RT Buffer (4 μl), 2.5 mM Deoxynucleoside Triphosphates (dNTPs, 5 μl), 2 μl DTT and Nuclease-Free Water, were added to the reaction (total volume, 20 μl). To denature the RNA, reaction tubes were placed in a GeneAmp PCR System 9700 (Applied Biosystems, Cheshire, U.K.) and heated for 5 min/95° C., prior to cooling to 4° C. Superscript (1 μl) and RNAsin® Ribonuclease Inhibitor (1 μl, Promega, Hampshire, U.K.) were added to each tube, and the tubes subjected to […] at 20° C. for 10 min, 42° C. for 1 h and 95° C. for 5 min, prior to storage at 4° C., until required. As a negative control, RT was also performed, with Nuclease-Free Water replacing the RNA sample.
qPCR was performed, as described above, with the probe and primers for HAS1, HAS2 and HAS3 (target genes) and the 18s ribosomal RNA (reference gene), designed and supplied by Applied Biosystems. PCR was performed in a final volume of 20 μl/sample, with each reaction mix consisting of cDNA (1 μl), target gene primers and probe (1 μl), Taqman® FAST Universal PCR Master Mix (10 μl, Applied Biosystems), and Nuclease-Free Water (8 μl). PCR amplification was performed, using an initial cycle of 95° C. for 1 s, followed by 40 cycles of 60° C. for 20 s. A cDNA-free control was also included. Again, the comparative CT method was used for relative quantification of gene expression. Each experiment was performed on three separate occasions.

For `C/C=C(/C)C(=O)O[C@H]1C(C)=C[C@]23C(=O)[C@@H](C=C(CO)[C@@H](O)[C@]12O)[C@H]1[C@@H](C[C@H]3C)C1(C)C` [PEP005, ingenol-3-angelate], the hyaluronan synthesis entry with dermal fibroblasts (PEP005 0.01-10 μg/ml, absence of TGF-β1, 24 h, compared to untreated controls) is “significant, stimulatory effect”; in the test on dermal fibroblasts (PEP005 0.01-100 μg/ml, absence of TGF-β1, 72 h, compared to untreated controls) it was “significant, stimulatory effect”; in the test with dermal fibroblasts (PEP005 plus TGF-β1 (10 ng/ml), 24 h, compared to untreated controls and to PEP005 without TGF-β1), “significant, synergistic effect”. Moreover, the HAS1 expression entry is reported as “general down-regulation” with HAS1 (PEP005 0.01-100 μg/ml plus TGF-β1 (10 ng/ml), 24 h, p<0.05 at 0.01 μg/ml, p<0.01 at 100 μg/ml); “general down-regulation” in the test with HAS1 (PEP005 0.01-100 μg/ml plus TGF-β1 (10 ng/ml), 72 h, non-significant (p>0.05)); “no obvious effects” in the test with HAS1 (PEP005, absence of TGF-β1, 24 h); “no obvious effects” in the test on HAS1 (PEP005, absence of TGF-β1, 72 h).
